Drawing on US8258158B2 (Hoffmann-La Roche Inc., priority 2009, dated 2012), this text covers IC50 for 20 compounds.

pIC50: −log10 of the molar value.

This assay concerns the target T1, human HSL (Homo sapiens, UniProt Q05469).
T1 construct: overlapping PCR to generate a full length human HSL ORF with a 3′-His6 tag; His6 (C); made in house; host or cells: High 5 insect cells (baculovirus, pFast-BAC)
T1 sequence (Q05469 1-1076): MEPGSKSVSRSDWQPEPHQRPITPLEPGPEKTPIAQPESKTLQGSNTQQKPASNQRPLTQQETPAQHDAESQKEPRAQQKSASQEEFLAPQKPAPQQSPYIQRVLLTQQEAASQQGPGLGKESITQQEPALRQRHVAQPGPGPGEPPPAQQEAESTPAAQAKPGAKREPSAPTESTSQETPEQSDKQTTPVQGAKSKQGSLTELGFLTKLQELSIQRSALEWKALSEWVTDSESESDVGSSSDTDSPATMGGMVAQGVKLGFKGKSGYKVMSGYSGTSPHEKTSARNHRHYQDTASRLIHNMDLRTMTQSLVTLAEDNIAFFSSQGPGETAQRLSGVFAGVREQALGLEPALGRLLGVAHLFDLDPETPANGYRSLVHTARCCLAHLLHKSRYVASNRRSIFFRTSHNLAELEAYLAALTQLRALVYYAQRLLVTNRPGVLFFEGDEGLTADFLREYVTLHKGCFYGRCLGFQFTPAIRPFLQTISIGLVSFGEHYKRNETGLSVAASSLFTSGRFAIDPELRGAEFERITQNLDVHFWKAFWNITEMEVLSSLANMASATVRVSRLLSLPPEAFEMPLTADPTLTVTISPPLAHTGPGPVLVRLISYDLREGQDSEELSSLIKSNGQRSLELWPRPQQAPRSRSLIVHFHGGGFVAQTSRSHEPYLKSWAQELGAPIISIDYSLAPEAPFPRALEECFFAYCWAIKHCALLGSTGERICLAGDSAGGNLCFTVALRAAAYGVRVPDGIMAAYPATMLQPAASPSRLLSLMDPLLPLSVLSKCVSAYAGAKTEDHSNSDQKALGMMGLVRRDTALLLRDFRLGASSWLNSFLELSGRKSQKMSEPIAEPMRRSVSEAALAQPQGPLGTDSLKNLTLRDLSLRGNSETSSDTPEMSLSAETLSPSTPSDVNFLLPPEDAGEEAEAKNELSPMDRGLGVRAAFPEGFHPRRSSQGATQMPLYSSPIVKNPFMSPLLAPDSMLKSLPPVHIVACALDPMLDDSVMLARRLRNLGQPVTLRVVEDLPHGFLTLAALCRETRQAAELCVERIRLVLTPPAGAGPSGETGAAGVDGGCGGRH
The assay is described as follows: Human hormone-sensitive lipase (HSL) enzyme inhibition assay (colorimetric, DMPT substrate). The assay is classed as biochemical. To be noted: human full length HSL-His6; 2,3-dimercapto-1-propanol tributyrate substrate; 37° C., 20 minutes; read-out: HSL hum IC50. The protocol: Production of Human Full Length Hormone Sensitive Lipase-His^6:
1) Cloning: cDNA was prepared from commercial human brain polyA+ RNA and used as a template in overlapping PCR to generate a full length human HSL ORF with a 3′-His6 tag. This full length insert was cloned into the pFast-BAC vector and the DNA-sequence of several single clones was verified. DNA from a correct full length clone with the 3′His6 tag was used to transform the E. coli strain DH10BAC. Resulting bacmid DNA was used to generate a titered baculovirus stock for protein generation. The sequence of the encoded HSL conforms to Swissprot entry Q05469, with the additional C-terminal His6-tag.
2) Protein purification: Culture: 5.5 L, High 5 cells expressing human full length HSL-His^6, 48 hr., containing 25 μM E-64. Cell count: […], 90% viable. Cells were thawed. On ice, cells were suspended in Base Buffer containing 10% glycerol, 25 mM Tris-Cl, 300 mM NaCl, 10 mM imidazole, 10 mM 2-mercaptoethanol, 2 μg pepstatin/ml, 2 μg leupeptin/ml, 2 μg antipain/ml, pH 8.0 at 4° C. in a final volume of 475 ml with 3.75×10^7 cells/ml. […] was done at 3×30 sec., Lubrol PX was added to 0.2% final concentration followed by stirring for 15 min. at 4° C. and centrifugation at 25 k×g, 60 min., 4° C. Soluble proteins were mixed with 60 ml of pre-washed and equilibrated Ni-NTA Agarose (Qiagen 30210) followed by tumbling end-over-end, 45 min., 4° C., centrifugation 1000 rpm 5 min and letting resin settle 5 min. Supernatant was removed, the resin washed in the centrifuge vessel using 5 volumes of Base Buffer containing 0.2% Lubrol PX. Centrifugation was done again, then the supernatant discarded. The resin was poured onto a 0.8 μm membrane in a disposable filter unit (Nalge 450-0080), and washed with 5 volumes of Base Buffer containing 0.2% Lubrol PX. It was then washed with 30 volumes of Base Buffer containing 60 mM imidazole pH 7.5 at 4° C. The protein was eluated with 5 volumes of 25 mM Tris-Cl, 300 mM NaCl, 200 mM imidazole, 10 mM 2-mercaptoethanol, pH 7.5 at 4° C. by tumbling resin with buffer end-over-end, 30 min., 4° C. The resin was captured on a 0.2 μm membrane disposable filter unit (Millipore SCGP U02 RE) and the eluate collected in the reservoir. The eluate was concentrated using a 30 k MWCO centrifugal filter device (Sartorius Vivascience Vivacell 100, VC1022), to 20 ml. It was then dialyzed overnight at 4° C., two times against 2 L of 10% glycerol, 25 mM Tris-Cl, 300 mM NaCl, 0.2 mM EDTA, 0.2 mM DTT, pH 7.5 at 4° C. The protein was filtered using a 0.22 μm disposable filter unit (Millipore SCGP00525). The protein concentration was calculated from absorbance at 280 nm, using 280=0.67 cm-1 mg-1. Yield was 235 mg, total. The protein was stored at −80° C.
Human Hormone-Sensitive Lipase (HSL) Enzyme Inhibition Assay:
HSL enzyme activity was measured by a colorimetric assay using 2,3-dimercapto-1-propanol tributyrate (Aldrich, St. Louis, Mo.) as a substrate. Typically, 1.5 mM 2,3-dimercapto-1-propanol tributyrate (DMPT) in 100 mM MOPS, pH 7.2, 0.2 mg/ml fatty acid-free BSA was prepared by sonication at 4° C. to homogenous suspension. Test compounds (2 mM stock in DMSO) were diluted 3 fold in series in DMSO. Compound solutions were diluted 24 fold in 1.5 mM DMPT containing solution and 18 ul per well was added to 384-well microplates (Corning Costar). Twelve microliters per well of human HSL (15 ug/ml) was added and the reaction mixture was incubated at 37° C. for 20 minutes. Six microliters of 12 mM dithio-bis-(2-nitrobenzoic acid) (DTNB) in DMSO plus 1.2% SDS and 0.6% Triton X-100 were added and the mixture was incubated at room temperature for 15 minutes. Product production was monitored by reading absorbance at 405 nm on an Envision Reader (PerkinElmer Life and Analytical Sciences, Shelton, Conn.).

As to `Cc1ccc(S(=O)(=O)N2CCC(C(=O)Nc3ccc4c(c3)CCO4)CC2)cc1` [Example 17, 1-(Toluene-4-sulfonyl)-piperidine-4-carboxylic acid (2,3-dihydro-benzofuran-5-yl)-amide], the negative logarithm of the IC50 (pIC50) (commonly the IC50 on a negative log10 scale, so that one unit is a factor of ten) is 6.11. The figure for `Cc1ccc(S(=O)(=O)N2CCC(F)(C(=O)Nc3ccc(OC(F)(F)F)cc3)CC2)cc1` [Example 18, 4-Fluoro-1-(toluene-4-sulfonyl)-piperidine-4-carboxylic acid (4-trifluoromethoxy-phenyl)-amide] is 6.26; for `Cc1ccc(S(=O)(=O)N2CCC(F)(C(=O)Nc3ccc(OC(C)C)cc3)CC2)cc1` [Example 19, 4-Fluoro-1-(toluene-4-sulfonyl)-piperidine-4-carboxylic acid (4-isopropoxy-phenyl)-amide] it is 6.13; for `Cc1ccc(S(=O)(=O)N2CCC(C(=O)Nc3ccc(OCC4CC4)cc3)CC2)cc1` [Example 20, 1-(Toluene-4-sulfonyl)-piperidine-4-carboxylic acid (4-cyclopropylmethoxy-phenyl)-amide] it is 6.77.

Take `CC(C)(C)CC(=O)N1CCC(C(=O)Nc2ccc(OC(F)(F)F)cc2)CC1` [Example 21, 1-(3,3-Dimethyl-butyryl)-piperidine-4-carboxylic acid (4-trifluoromethoxy-phenyl)-amide]: the pIC50 was 6.70.

Take `Cc1ccc(S(=O)(=O)N2CCC(C(=O)Nc3ccc(CCO)cc3)CC2)cc1` [Example 22, 1-(Toluene-4-sulfonyl)-piperidine-4-carboxylic acid [4-(2-hydroxy-ethyl)-phenyl]-amide]: the pIC50 was 6.15. The figure for `O=C(Nc1ccc(OC(F)(F)F)cc1)C1(CO)CCN(S(=O)(=O)c2ccccc2)CC1` [Example 26, 1-Benzenesulfonyl-4-hydroxymethyl-piperidine-4-carboxylic acid (4-trifluoromethoxy-phenyl)-amide] is 6.66; for `O=C(Nc1ccc(OC(F)(F)F)cc1)C1(CO)CCN(S(=O)(=O)c2ccccc2Cl)CC1` [Example 28, 1-(2-Chloro-benzenesulfonyl)-4-hydroxymethyl-piperidine-4-carboxylic acid (4-trifluoromethoxy-phenyl)-amide] it is 6.18. For `COc1ccc(S(=O)(=O)N2CCC(F)(C(=O)Nc3ccc(OC(F)(F)F)cc3)CC2)cc1` [Example 29, 4-Fluoro-1-(4-methoxy-benzenesulfonyl)-piperidine-4-carboxylic acid (4-trifluoromethoxy-phenyl)-amide], the pIC50 is 6.55. For `O=C(Nc1ccc(OC(F)(F)F)cc1)C1(F)CCN(S(=O)(=O)c2ccccc2Cl)CC1` [Example 30, 1-(2-Chloro-benzenesulfonyl)-4-fluoro-piperidine-4-carboxylic acid (4-trifluoromethoxy-phenyl)-amide], the negative logarithm of the IC50 (pIC50) is 6.74. The figure for `Cc1ccc(S(=O)(=O)N2CCC(C)(C(=O)Nc3ccc(OC(F)(F)F)cc3)CC2)cc1` [Example 31, 4-Methyl-1-(toluene-4-sulfonyl)-piperidine-4-carboxylic acid (4-trifluoromethoxy-phenyl)-amide] is 6.32; for `Cc1ccc(S(=O)(=O)N2CCC(C(=O)Nc3ccc(OC(C)(C)C(F)(F)F)cc3)CC2)cc1` [Example 33, 1-(Toluene-4-sulfonyl)-piperidine-4-carboxylic acid [4-(2,2,2-trifluoro-1,1-dimethyl-ethoxy)-phenyl]-amide] it is 6.89; for `CCn1nc(NC(=O)C2CCN(S(=O)(=O)c3ccccc3)CC2)cc1C(F)(F)F` [Example 35, 1-Benzenesulfonyl-piperidine-4-carboxylic acid (1-ethyl-5-trifluoromethyl-1H-pyrazol-3-yl)-amide] it is 5.95. The figure for `O=C(Nc1ccc(OC(F)(F)F)cc1)C1CCN(S(=O)(=O)N2CCOCC2)CC1` [Example 37, 1-(Morpholine-4-sulfonyl)-piperidine-4-carboxylic acid (4-trifluoromethoxy-phenyl)-amide] is 6.22; for `O=C(Nc1ccc(OC(F)(F)F)cc1)C1CCN(S(=O)(=O)c2ccccc2Cl)CC1` [Example 38, 1-(2-Chloro-benzenesulfonyl)-piperidine-4-carboxylic acid (4-trifluoromethoxy-phenyl)-amide] it is 7.70; for `CC(C)Oc1ccc(NC(=O)C2CCN(S(=O)(=O)c3ccccc3Cl)CC2)cc1` [Example 39, 1-(2-Chloro-benzenesulfonyl)-piperidine-4-carboxylic acid (4-isopropoxy-phenyl)-amide] it is 7.40. The figure for `Cc1ccc(S(=O)(=O)N2CCC(F)(C(=O)Nc3ccc(C(C)C)cc3)CC2)cc1` [Example 41, 4-Fluoro-1-(toluene-4-sulfonyl)-piperidine-4-carboxylic acid (4-isopropyl-phenyl)-amide] is 6.49; for `O=C(Nc1ccc(OC(F)(F)F)cc1)C1CCN(S(=O)(=O)c2ccccc2)CC1` [Example 46, 1-Benzenesulfonyl-piperidine-4-carboxylic acid (4-trifluoromethoxy-phenyl)-amide] it is 7.40. Take `CC(C)Oc1ccc(NC(=O)C2CCN(S(=O)(=O)c3ccccc3)CC2)cc1` [Example 47, 1-Benzenesulfonyl-piperidine-4-carboxylic acid (4-isopropoxy-phenyl)-amide]: the pIC50 was 7.15. The figure for `COc1ccc(S(=O)(=O)N2CCC(C(=O)Nc3ccc(OC(F)(F)F)cc3)CC2)cc1` [Example 48, 1-(4-Methoxy-benzenesulfonyl)-piperidine-4-carboxylic acid (4-trifluoromethoxy-phenyl)-amide] is 7.40.
